Reference: PubChem BioAssay AID1195 (EPA DSSTox, 2008)

Test system: human maximum recommended daily dose, FDA database
Assay: DSSTox (FDAMDD) FDA Maximum (Recommended) Daily Dose Database
Conditions: active compounds read low
How it was run: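 MRDD values come from clinical trials with daily oral dosing, usually for 3–12 months, for the average adult, in mg/day converted to mg/kg-bw/day assuming 60 kg. Antineoplastic mg/m2 doses are divided by 37. Activity score maps log10(1/MRDD mmol) onto 1–100.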

[1] = TherapeuticCategory: antibacterial
[2] = TherapeuticCategory: antihistaminic
[3] = TherapeuticCategory: sedative, hypnotic
[4] = TherapeuticCategory: anticholinergic

## COC1[C@@H](O[C@@H]2O[C@H](C)[C@@H](O[C@H]3C[C@@](C)(O)[C@H](OC(=O)CC(C)C)[C@H](C)O3)[C@H](N(C)C)[C@H]2O)[C@@H](CC=O)C[C@@H](C)[C@@H](O)/C=C/C=C/C[C@@H](C)OC(=O)C[C@H]1OC(C)=O (some centres undefined)
[1]
  maximum recommended daily dose (mmol/kg-bw/day): 0.0604

## C[N+](C)(C)C[C@H](O)CC(=O)[O-]
TherapeuticCategory: antihyperlipoproteinemic
  maximum recommended daily dose (mmol/kg-bw/day): 0.307

## CCCCN(CCCC)CCC(O)c1cc2c(Cl)cc(Cl)cc2c2cc(C(F)(F)F)ccc12 (centres undefined)
TherapeuticCategory: antimalarial
  maximum recommended daily dose (mmol/kg-bw/day): 0.05

## O=C(O)COCCN1CCN(C(c2ccccc2)c2ccc(Cl)cc2)CC1 (centres undefined)
[2]
  maximum recommended daily dose (mmol/kg-bw/day): 0.0432

## O=C1OC(c2ccc(O)c(S(=O)(=O)O)c2)(c2ccc(O)c(S(=O)(=O)O)c2)c2c(Br)c(Br)c(Br)c(Br)c21
TherapeuticCategory: diagnostic aid
  maximum recommended daily dose (mmol/kg-bw/day): 0.00597

## CC(=O)OC1C([N+]2(C)CCCCC2)C[C@H]2[C@@H]3CC[C@H]4C[C@H](OC(C)=O)C(N5CCCCC5)C[C@]4(C)[C@H]3CC[C@]12C (some centres undefined)
TherapeuticCategory: skeletal muscle relaxant
  maximum recommended daily dose (mmol/kg-bw/day): 0.000157

## O=P(O)(O)OCC(Cl)(Cl)Cl
[3]
  maximum recommended daily dose (mmol/kg-bw/day): 0.145

## c1ccc(CN(CC2=NCCN2)c2ccccc2)cc1
[2]
  maximum recommended daily dose (mmol/kg-bw/day): 0.0188

## CCN(CC)CCNC(=O)c1cc(S(C)(=O)=O)ccc1OC
TherapeuticCategory: antidyskinetic
  maximum recommended daily dose (mmol/kg-bw/day): 0.0203

## CC(=O)CC(c1ccc([N+](=O)[O-])cc1)c1c(O)c2ccccc2oc1=O (centres undefined)
TherapeuticCategory: anticoagulant
  maximum recommended daily dose (mmol/kg-bw/day): 0.000566

## Cc1cc(=O)n(-c2ccccc2)n1C (tested in a mixture with another compound)
[3]
  maximum recommended daily dose (mmol/kg-bw/day): 0.0626

## CN(C)[C@@H]1C(=O)C(C(N)=O)=C(O)[C@@]2(O)C(=O)C3=C(O)c4c(O)ccc(Cl)c4[C@@](C)(O)[C@H]3C[C@@H]12
TherapeuticCategory: antibacterial, antiamebic
  maximum recommended daily dose (mmol/kg-bw/day): 0.0695

## C[C@@H]1C[C@H]2[C@@H]3CCC4=CC(=O)C=C[C@]4(C)[C@@]3(F)[C@@H](O)C[C@]2(C)[C@@]1(O)C(=O)CO
TherapeuticCategory: glucocorticoid, anti inflammatory
  maximum recommended daily dose (mmol/kg-bw/day): 0.000382

## CCO[C@@H]1O[C@H](C(COCc2ccccc2)OCc2ccccc2)[C@H](OCc2ccccc2)[C@H]1O (some centres undefined)
TherapeuticCategory: sclerosing agent
  maximum recommended daily dose (mmol/kg-bw/day): 0.0278

## Oc1ccc2c(c1)[C@@]13CCCC[C@@]1(O)[C@@H](C2)N(CC1CCC1)CC3
TherapeuticCategory: narcotic analgesic
  maximum recommended daily dose (mmol/kg-bw/day): 0.000815

## O=C(O)CC(O)(CC(=O)O)C(=O)O
TherapeuticCategory: bactericide
  maximum recommended daily dose (mmol/kg-bw/day): 0.52

## COc1cc(N)c(Cl)cc1C(=O)NC1CCN(Cc2ccccc2)CC1
TherapeuticCategory: antiemetic, antispasmodic
  maximum recommended daily dose (mmol/kg-bw/day): 6.69e-05

## NNc1nncc2ccccc12
TherapeuticCategory: antihypertensive
  maximum recommended daily dose (mmol/kg-bw/day): 0.0208

## OC[C@H]1OC(O)[C@H](O)[C@@H](O)[C@H]1O (some centres undefined)
TherapeuticCategory: diagnostic aid, hepatic function
  maximum recommended daily dose (mmol/kg-bw/day): 0.555

## OC(CCCN1CCCCC1)(c1ccccc1)c1ccccc1
TherapeuticCategory: antiemetic
  maximum recommended daily dose (mmol/kg-bw/day): 0.0162

## O=c1[nH]c(=S)[nH]cc1I
TherapeuticCategory: thyroid inhibitor
  maximum recommended daily dose (mmol/kg-bw/day): 0.0197

## CNC1(c2ccccc2Cl)CCCCC1=O (centres undefined)
TherapeuticCategory: anesthetic
  maximum recommended daily dose (mmol/kg-bw/day): 0.00841

## CC(=O)O[C@H]1C[C@H](O[C@H]2[C@@H](O)C[C@H](O[C@H]3[C@@H](O)C[C@H](OC4CC[C@@]5(C)C(CC[C@@H]6[C@@H]5C[C@@H](O)[C@]5(C)[C@@H](C7=CC(=O)OC7)[C@@H](O)C[C@]65O)C4)O[C@@H]3C)O[C@@H]2C)O[C@H](C)[C@H]1O[C@@H]1O[C@H](CO)[C@@H](O)[C@H](O)[C@H]1O (some centres undefined)
TherapeuticCategory: cardiotonic
  maximum recommended daily dose (mmol/kg-bw/day): 3.33e-05

## Cc1ccc(-c2cc(C(F)(F)F)nn2-c2ccc(S(N)(=O)=O)cc2)cc1
TherapeuticCategory: anti inflammatory, antiarthritic
  maximum recommended daily dose (mmol/kg-bw/day): 0.0175

## Oc1c(Cl)cc(Cl)c2cccnc12
TherapeuticCategory: antiseborrhetic
  maximum recommended daily dose (mmol/kg-bw/day): 0.312

## NC(=S)N=Nc1ccc(NN=C(N)N)cc1
[1]
  maximum recommended daily dose (mmol/kg-bw/day): 0.000704

## CO[C@H]1[C@@H](O)[C@H](N)[C@@H](O[C@H]2O[C@H]([C@H](C)N)CC[C@H]2N)[C@H](O)[C@@H]1N(C)C(=O)CN
[1]
  maximum recommended daily dose (mmol/kg-bw/day): 0.0164

## CN1[C@@H]2CC[C@H]1CC(OC(=O)C(CO)c1ccccc1)C2 (some centres undefined)
TherapeuticCategory: anticholinergic, mydriatic, antispasmodic
  maximum recommended daily dose (mmol/kg-bw/day): 4.6e-06

## O=C1CN=C(c2ccccc2Cl)c2cc([N+](=O)[O-])ccc2N1
TherapeuticCategory: anticonvulsant
  maximum recommended daily dose (mmol/kg-bw/day): 0.000421

## COC1CC(=C(c2cccs2)c2cccs2)C[N+](C)(C)C1 (centres undefined)
[4]
  maximum recommended daily dose (mmol/kg-bw/day): 0.00375

## CO[C@H]1C[C@H](O[C@H]2[C@H](C)[C@@H](O[C@@H]3O[C@H](C)C[C@H](N(C)C)[C@H]3OC(C)=O)[C@@H](C)C[C@]3(CO3)C(=O)[C@H](C)[C@@H](OC(C)=O)[C@@H](C)[C@@H](C)OC(=O)[C@@H]2C)O[C@@H](C)[C@@H]1OC(C)=O
[1]
  maximum recommended daily dose (mmol/kg-bw/day): 0.0409

## CCOC(=O)c1cncn1C(C)c1ccccc1 (centres undefined)
[4]
  maximum recommended daily dose (mmol/kg-bw/day): 0.00246

## CCC1(c2ccccc2)CCC(=O)NC1=O (centres undefined)
[3]
  maximum recommended daily dose (mmol/kg-bw/day): 0.0383

## CC1=CC(=O)c2ccccc2C1=O
TherapeuticCategory: prothrombogenic vitamin
  maximum recommended daily dose (mmol/kg-bw/day): 0.000193
